Where “and” joins values, the source holds several entries; their conditions need not be identical. Equal entries are not always repeated. Where two headings read alike, the source gives them in different places.

The values below come from US20220017468A1, “ISOQUINOLINE COMPOUNDS AND THEIR USE IN TREATING AhR IMBALANCE” (Dermavant Sciences GmbH, priority 2020, published 2022).

Series [1] has as its target T1, AhR (Homo sapiens, UniProt P35869).
T1 construct: LS-180 cells stably transfected with a CYP1A1 promoter-linked beta-lactamase gene reporter construct; endogenous in cells; host or cells: CYP1A1-bla LS-180 cells
T1 sequence (P35869 11-848): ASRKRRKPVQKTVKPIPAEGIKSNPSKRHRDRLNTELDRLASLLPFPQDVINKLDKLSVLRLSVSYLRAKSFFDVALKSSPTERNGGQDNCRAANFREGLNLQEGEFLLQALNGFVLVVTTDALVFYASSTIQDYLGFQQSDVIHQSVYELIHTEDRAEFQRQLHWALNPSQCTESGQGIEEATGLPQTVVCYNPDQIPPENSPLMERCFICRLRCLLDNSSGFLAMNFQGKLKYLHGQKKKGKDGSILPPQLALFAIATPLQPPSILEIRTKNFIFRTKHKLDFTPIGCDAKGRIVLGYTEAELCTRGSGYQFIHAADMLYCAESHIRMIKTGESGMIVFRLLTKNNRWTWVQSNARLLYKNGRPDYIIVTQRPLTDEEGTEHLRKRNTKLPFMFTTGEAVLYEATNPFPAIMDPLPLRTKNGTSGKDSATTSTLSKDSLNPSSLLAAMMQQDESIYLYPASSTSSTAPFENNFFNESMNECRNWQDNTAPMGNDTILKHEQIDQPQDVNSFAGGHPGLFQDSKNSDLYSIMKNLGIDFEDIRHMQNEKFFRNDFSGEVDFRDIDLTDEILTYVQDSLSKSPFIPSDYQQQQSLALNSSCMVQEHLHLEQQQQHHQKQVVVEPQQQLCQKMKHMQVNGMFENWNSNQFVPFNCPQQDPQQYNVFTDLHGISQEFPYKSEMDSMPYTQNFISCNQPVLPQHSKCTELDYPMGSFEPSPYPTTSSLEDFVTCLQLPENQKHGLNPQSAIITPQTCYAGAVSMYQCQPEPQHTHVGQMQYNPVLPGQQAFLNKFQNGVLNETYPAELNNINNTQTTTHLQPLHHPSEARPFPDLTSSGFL
The series can be described thus: CYP1A1-bla LS-180 AhR antagonist assay. Format: cell-based. Particulars: competition of FICZ- or TCDD-induced AhR activation. The procedure:
A similar assay was used to evaluate the antagonist capacity of compounds. CYP1A1-bla LS-180 cells in exponential growth phase were washed twice with DPBS then seeded into 96-well microplates (50,000 cells/well) and allowed to adhere. Either FICZ or TCDD was added as an agonist and prepared compounds (2× working concentrations in complete media) were added 2 hours later. Cells were incubated for ˜20 hrs, after which compounds were tested for their ability to compete FICZ- or TCDD-induced AhR activation as a means to evaluate potential allosteric or partial agonist activity. The LiveBLAzer FRET B/G β-lactamase substrate was added in the final hour of incubation and resulting blue/green fluorescence was measured using a 96-well microplate reader, as described above.

The nature of series [2]: blood-to-plasma ratio and blood cell association, human. The series is classed as in vitro ADME.
Series [3] can be described thus: metabolic stability in hepatocytes, rabbit. The series is classed as in vitro ADME.
Series [4] can be described thus: metabolic stability in liver microsomes, rabbit. Format: in vitro ADME. For orientation: Liver microsomes are vesicles of endoplasmic reticulum, rich in cytochrome P450 enzymes.
Series [5] can be described thus: metabolic stability in liver microsomes, minipig. The series is classed as in vitro ADME.

`CC(C)c1c(O)cc(-c2cc3ccccc3cn2)cc1O`: the “AhR antagonist assay result” value in series [1] is “negative”. For the same molecule, in series [2] (1 μM), the “% Blood Cell Association Mean (% CV)” value was 55.0 (2.39) %. The “% Blood Cell Association Replicate” value in series [2] (1 μM) is 53.9% and 56.4% and 54.6%. For the same molecule, the “Blood-to-plasma Ratio Replicate” value in series [2] (1 μM) was 1.29 and 1.23. Moreover, in series [2] (1 μM), the “Mean % Blood Stability” value is 107%. For the same molecule, the blood plasma ratio at 1 μM in series [2] (read-out: Blood-to-plasma Ratio Mean (% CV)) was found to be 1.24; in series [2] (read-out: Blood-to-plasma Ratio Replicate) it was 1.21. The half-life at 0.5 μM in series [3] turned out to be 21.3 min; in series [4] (rabbit, microsomes), 6.1 min; in series [5] (minipig, microsomes), 24.2 min. For the same molecule, in series [3] (0.5 μM), the “CLint, hep” value was found to be 7.80 mL/min/g liver. In addition, the CLint scaled at 0.5 μM is 14.4 L/h/kg in series [3] (read-out: Scaled CLint, hep); 22 L/h/kg in series [4] (rabbit liver microsomes, 0.5 μM, read-out: Scaled CLint, mic); 3.02 L/h/kg in series [5] (minipig liver microsomes, 0.5 μM, read-out: Scaled CLint, mic). The “CLint, mic” value in series [4] (rabbit liver microsomes, 0.5 μM) came out at 11.9 mL/min/g liver; in series [5] (minipig liver microsomes, 0.5 μM), 3.01 mL/min/g liver.

The half-life is how long it takes for the measured level to halve. By CLint scaled is commonly meant the rate of metabolic loss divided by the concentration.
